ChEMBL document CHEMBL5247653, “Discovery of Clinical Candidate ACT-777991, a Potent CXCR3 Antagonist for Antigen-Driven and Inflammatory Pathologies” (J Med Chem, 2023)
≈ marks a conversion by molar mass, not a printed value. Calls of active or inactive are those of the source. The calls are words filed in the database; no cut-off is given here.

Key:
[1] = molecular target: C-X-C chemokine receptor type 3 (Canis lupus familiaris, UniProt Q5KSK8); experiment: Antagonist activity at dog CXCR3 expressed in CHO-K1 cells assessed as reduction in CXCL10 induced calcium flux by FLIPR method; type: cell-based
[2] = system: Mus musculus; experiment: Antiinflammatory activity against LPS-induced DBA/1 mouse model assessed as reduction in CXCR3+ CD8+ T cells infiltration into BAL at 0.02 microg/g, po preincubated for 3 days followed by LPS stimulation for 30 mins and measured after 3 days by flow cytometry; type: functional, T-cell; parameters: scale not given: the % may be the effect or the level left; conditions: dose 0.02 µg/g, time 6 day
[3] = system: Mus musculus; experiment: Antiinflammatory activity against LPS-induced DBA/1 mouse model assessed as reduction in CXCR3+ CD8+ T cells infiltration into BAL at 0.006 to 2 microg/g, po bid preincubated for 3 days followed by LPS stimulation for 30 mins and measured after 3 days by flow cytometry; type: functional, organism-based; conditions: T-cell, dose 0.006-2 µg/g, time 6.0 day
[4] = molecular target: T1, Voltage-gated inwardly rectifying potassium channel KCNH2 (Homo sapiens, UniProt Q12809); experiment: Inhibition of human ERG stably expressed in CHO cells at -80 mV holding voltage by automated QPatch electrophysiological assay; type: toxicity, cell-based
[5] = molecular target: Cytochrome P450 2C9 (Homo sapiens, UniProt P11712); experiment: Competitive inhibition of CYP2C9 (unknown origin); type: ADME
[6] = molecular target: C-C chemokine receptor type 5 (Homo sapiens) (UniProt P51681); experiment: Binding affinity to CCR5 (unknown origin) at 10 uM by radioligand binding assay
[7] = Total clearance in Wistar rat plasma at 0.5 mg/kg, iv; type: ADME, organism-based
[8] = molecular target: Cytochrome P450 2D6 (Homo sapiens, UniProt P10635); experiment: Time dependent inhibition of CYP2D6 (unknown origin); type: ADME
[9] = Tmax in Beagle dog at 2.5 mg/kg,iv or 2.5 mg/kg, po; type: ADME, organism-based, Canis lupus familiaris; conditions: in vivo
[10] = Metabolic stability in human hepatocyte assessed as M3 metabolite formation at 1 uM and measured upto 15 mins in presence of NADPH regenerating system by LC-MS/MS analysis; type: ADME, cell-based; conditions: hepatocytes, 0.25 h
[11] = molecular target: ATP-dependent translocase ABCB1 (Homo sapiens, UniProt P08183); experiment: Inhibition of human P-gp in dog MDCKII-MDR1 cells; type: ADME, cell-based
[12] = molecular target: hERG (KCNH2) (Homo sapiens, UniProt Q12809); experiment: (§1) Inhibition of human ERG K+ currents by GLP assay; type: toxicity; conditions: human
[13] = molecular target: T1, Voltage-gated inwardly rectifying potassium channel KCNH2; experiment: as §1; type: toxicity
[14] = Metabolic stability in rat hepatocyte assessed as M2 metabolite formation at 1 uM and measured upto 15 mins in presence of NADPH regenerating system by LC-MS/MS analysis; type: ADME, cell-based; conditions: hepatocytes, 0.25 h
[15] = Lipophilicity, log D of compound; type: physicochemical; conditions: octanol/water
[16] = molecular target: C-C chemokine receptor type 7 (Homo sapiens) (UniProt P32248); experiment: Binding affinity to CCR7 (unknown origin) at 10 uM by radioligand binding assay
[17] = Metabolic stability in human hepatocyte assessed as M4 metabolite formation at 1 uM and measured upto 15 mins in presence of NADPH regenerating system by LC-MS/MS analysis; type: ADME, cell-based; conditions: hepatocytes, 0.25 h
[18] = Metabolic stability in dog hepatocytes assessed as intrinsic clearance per 10^6 cells at 1 uM by LC-MS/MS analysis; type: ADME, cell-based, Canis lupus familiaris, Hepatocyte
[19] = molecular target: T2, C-X-C chemokine receptor type 3 (Mus musculus, UniProt O88410); experiment: Antagonist activity at mouse CXCR3 expressed in CHO-K1 cells assessed as reduction in CXCL11 induced calcium flux by FLIPR method; type: cell-based
T2 sequence (O88410 whole entry): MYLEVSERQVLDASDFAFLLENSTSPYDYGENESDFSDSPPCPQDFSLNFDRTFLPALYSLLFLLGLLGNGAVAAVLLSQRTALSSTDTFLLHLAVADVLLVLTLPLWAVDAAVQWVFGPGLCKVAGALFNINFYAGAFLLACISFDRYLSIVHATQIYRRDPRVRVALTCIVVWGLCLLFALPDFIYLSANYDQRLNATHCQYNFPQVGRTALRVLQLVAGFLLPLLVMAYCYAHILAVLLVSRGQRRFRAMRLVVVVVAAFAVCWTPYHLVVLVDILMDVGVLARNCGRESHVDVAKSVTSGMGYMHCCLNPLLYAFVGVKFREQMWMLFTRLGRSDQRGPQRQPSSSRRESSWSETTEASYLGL

[20] = Glutathione reactivity assessed as GSH-adduct formation by dansyl-glutathione trapping assay; type: physicochemical
[21] = molecular target: C3a anaphylatoxin chemotactic receptor (Homo sapiens) (UniProt Q16581); experiment: Binding affinity to C3aR1 (unknown origin) at 10 uM by radioligand binding assay
[22] = Half life in Wistar rat at 3 mg/kg,iv or 3mg/kg, po; type: ADME, organism-based; conditions: in vivo
[23] = Tmax in Wistar rat at 3 mg/kg,iv or 3 mg/kg, po; type: ADME, organism-based; conditions: in vivo
[24] = Cmax in LPS-induced DBA/1 mouse plasma at 0.02 microg/g, po bid preincubated for 3 days followed by LPS stimulation for 30 mins and measured after 72 hrs by flow cytometry; type: ADME, organism-based; parameters: time 6 day, dose 0.02 µg/g, route po; conditions: 0.02 µg/g
[25] = Clearance in Cynomolgus monkey at 1.0 mg/kg,iv or 1.25 mg/kg, po; type: ADME, organism-based, Macaca fascicularis; conditions: in vivo
[26] = Protein binding in rat plasma assessed as fraction unbound at 20 ug/ml using 14C-labeled ligand by rapid equilibrium dialysis; type: ADME, cell-free; conditions: at 20 µg/mL
[27] = Metabolic stability in dog hepatocyte assessed as M1 metabolite formation at 1 uM and measured upto 15 mins in presence of NADPH regenerating system by LC-MS/MS analysis; type: ADME, cell-based, Canis lupus familiaris; conditions: hepatocytes, 0.25 h
[28] = Metabolic stability in dog hepatocyte assessed as M2 metabolite formation at 1 uM and measured upto 15 mins in presence of NADPH regenerating system by LC-MS/MS analysis; type: ADME, cell-based, Canis lupus familiaris; conditions: hepatocytes, 0.25 h
[29] = Dissociation constant, pKa of compound; type: physicochemical
[30] = molecular target: C-X-C chemokine receptor type 6 (Homo sapiens) (UniProt O00574); experiment: Binding affinity to CXCR6 (unknown origin) at 10 uM by radioligand binding assay
[31] = Total clearance in Beagle dog plasma at 1 mg/kg, iv; type: ADME, organism-based, Canis lupus familiaris
[32] = molecular target: T3, C-X-C chemokine receptor type 3 (Homo sapiens) (UniProt P49682); experiment: Binding affinity to human CXCR3 expressed in CHO-K1 cell membrane assessed as dissociation rate constant (koff) using tritium-labeled ligand by […] assay; type: cell membranes; conditions: filed as antagonist
T3 sequence (whole entry): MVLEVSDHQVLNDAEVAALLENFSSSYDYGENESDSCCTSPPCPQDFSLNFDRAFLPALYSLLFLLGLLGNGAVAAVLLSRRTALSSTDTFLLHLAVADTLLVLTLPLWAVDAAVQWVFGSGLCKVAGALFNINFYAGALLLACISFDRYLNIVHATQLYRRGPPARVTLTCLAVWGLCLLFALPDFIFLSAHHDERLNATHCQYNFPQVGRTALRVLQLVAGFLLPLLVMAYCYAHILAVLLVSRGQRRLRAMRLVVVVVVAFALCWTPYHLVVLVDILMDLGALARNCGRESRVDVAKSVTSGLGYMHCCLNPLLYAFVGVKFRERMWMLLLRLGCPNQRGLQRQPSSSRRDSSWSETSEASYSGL

[33] = Oral bioavailability in Wistar rat at 3 mg/kg; type: ADME, organism-based; conditions: in vivo

T1 sequence (Q12809 whole entry): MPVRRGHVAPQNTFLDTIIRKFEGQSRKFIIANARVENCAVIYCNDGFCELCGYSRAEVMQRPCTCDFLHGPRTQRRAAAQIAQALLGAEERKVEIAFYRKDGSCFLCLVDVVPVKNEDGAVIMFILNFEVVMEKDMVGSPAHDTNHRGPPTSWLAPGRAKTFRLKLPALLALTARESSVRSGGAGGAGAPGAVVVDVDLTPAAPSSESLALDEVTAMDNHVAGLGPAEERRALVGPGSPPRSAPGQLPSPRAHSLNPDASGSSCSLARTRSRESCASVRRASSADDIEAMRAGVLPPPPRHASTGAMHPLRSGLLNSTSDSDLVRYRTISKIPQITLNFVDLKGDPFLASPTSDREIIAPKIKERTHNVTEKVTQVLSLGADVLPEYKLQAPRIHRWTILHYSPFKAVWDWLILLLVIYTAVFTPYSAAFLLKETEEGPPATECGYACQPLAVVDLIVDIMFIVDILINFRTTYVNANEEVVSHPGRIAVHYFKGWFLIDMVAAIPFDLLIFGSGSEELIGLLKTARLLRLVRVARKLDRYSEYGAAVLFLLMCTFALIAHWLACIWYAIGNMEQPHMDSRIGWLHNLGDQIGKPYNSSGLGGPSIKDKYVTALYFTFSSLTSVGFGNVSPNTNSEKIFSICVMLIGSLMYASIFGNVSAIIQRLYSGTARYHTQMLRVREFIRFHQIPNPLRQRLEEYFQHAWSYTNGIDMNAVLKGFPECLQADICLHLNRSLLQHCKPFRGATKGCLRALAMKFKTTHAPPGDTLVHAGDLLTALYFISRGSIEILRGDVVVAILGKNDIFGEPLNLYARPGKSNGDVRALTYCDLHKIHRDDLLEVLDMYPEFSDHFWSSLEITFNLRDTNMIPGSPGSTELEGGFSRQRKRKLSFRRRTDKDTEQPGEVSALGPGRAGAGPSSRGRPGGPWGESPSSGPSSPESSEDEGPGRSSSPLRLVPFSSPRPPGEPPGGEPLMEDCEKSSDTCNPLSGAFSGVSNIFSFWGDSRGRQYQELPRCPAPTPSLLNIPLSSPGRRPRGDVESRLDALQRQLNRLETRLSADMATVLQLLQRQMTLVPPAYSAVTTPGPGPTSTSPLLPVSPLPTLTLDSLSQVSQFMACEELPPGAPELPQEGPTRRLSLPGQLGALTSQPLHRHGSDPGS
Chain of hERG (KCNH2) (Q12809 whole entry): as above
Chain of C3a anaphylatoxin chemotactic receptor (Homo sapiens) (Q16581 whole entry): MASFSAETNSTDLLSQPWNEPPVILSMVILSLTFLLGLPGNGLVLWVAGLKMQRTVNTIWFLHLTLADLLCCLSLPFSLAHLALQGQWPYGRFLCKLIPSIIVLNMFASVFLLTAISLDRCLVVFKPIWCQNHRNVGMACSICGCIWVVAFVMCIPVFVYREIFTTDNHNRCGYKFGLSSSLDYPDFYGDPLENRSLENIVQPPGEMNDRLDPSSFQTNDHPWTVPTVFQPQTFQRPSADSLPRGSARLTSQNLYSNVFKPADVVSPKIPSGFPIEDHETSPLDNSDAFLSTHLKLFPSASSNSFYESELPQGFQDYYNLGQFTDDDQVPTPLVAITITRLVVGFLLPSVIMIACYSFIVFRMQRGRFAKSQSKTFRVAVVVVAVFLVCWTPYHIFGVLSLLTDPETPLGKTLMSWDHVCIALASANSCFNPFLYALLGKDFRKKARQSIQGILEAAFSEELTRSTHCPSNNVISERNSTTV
Chain of C-X-C chemokine receptor type 6 (Homo sapiens) (O00574 whole entry, looked up): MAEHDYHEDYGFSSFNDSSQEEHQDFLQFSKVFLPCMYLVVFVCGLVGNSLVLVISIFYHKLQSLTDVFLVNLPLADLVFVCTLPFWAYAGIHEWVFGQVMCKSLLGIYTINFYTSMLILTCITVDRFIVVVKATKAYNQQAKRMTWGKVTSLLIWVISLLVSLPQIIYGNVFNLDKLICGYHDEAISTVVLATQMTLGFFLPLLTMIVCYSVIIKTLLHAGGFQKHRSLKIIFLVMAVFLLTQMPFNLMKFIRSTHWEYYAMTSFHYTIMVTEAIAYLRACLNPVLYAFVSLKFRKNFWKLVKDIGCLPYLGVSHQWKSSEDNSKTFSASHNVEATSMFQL
Chain of C-C chemokine receptor type 5 (Homo sapiens) (P51681 whole entry, looked up): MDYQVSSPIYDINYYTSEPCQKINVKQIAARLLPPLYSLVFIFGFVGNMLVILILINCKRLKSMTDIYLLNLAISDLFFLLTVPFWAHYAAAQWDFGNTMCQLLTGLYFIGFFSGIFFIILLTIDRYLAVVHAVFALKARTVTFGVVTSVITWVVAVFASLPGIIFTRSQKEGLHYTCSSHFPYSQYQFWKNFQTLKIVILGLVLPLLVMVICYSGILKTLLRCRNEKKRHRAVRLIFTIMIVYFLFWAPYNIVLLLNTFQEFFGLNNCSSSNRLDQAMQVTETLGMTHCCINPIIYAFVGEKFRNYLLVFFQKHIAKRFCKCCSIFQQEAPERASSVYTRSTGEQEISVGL
Chain of ATP-dependent translocase ABCB1 (P08183 whole entry): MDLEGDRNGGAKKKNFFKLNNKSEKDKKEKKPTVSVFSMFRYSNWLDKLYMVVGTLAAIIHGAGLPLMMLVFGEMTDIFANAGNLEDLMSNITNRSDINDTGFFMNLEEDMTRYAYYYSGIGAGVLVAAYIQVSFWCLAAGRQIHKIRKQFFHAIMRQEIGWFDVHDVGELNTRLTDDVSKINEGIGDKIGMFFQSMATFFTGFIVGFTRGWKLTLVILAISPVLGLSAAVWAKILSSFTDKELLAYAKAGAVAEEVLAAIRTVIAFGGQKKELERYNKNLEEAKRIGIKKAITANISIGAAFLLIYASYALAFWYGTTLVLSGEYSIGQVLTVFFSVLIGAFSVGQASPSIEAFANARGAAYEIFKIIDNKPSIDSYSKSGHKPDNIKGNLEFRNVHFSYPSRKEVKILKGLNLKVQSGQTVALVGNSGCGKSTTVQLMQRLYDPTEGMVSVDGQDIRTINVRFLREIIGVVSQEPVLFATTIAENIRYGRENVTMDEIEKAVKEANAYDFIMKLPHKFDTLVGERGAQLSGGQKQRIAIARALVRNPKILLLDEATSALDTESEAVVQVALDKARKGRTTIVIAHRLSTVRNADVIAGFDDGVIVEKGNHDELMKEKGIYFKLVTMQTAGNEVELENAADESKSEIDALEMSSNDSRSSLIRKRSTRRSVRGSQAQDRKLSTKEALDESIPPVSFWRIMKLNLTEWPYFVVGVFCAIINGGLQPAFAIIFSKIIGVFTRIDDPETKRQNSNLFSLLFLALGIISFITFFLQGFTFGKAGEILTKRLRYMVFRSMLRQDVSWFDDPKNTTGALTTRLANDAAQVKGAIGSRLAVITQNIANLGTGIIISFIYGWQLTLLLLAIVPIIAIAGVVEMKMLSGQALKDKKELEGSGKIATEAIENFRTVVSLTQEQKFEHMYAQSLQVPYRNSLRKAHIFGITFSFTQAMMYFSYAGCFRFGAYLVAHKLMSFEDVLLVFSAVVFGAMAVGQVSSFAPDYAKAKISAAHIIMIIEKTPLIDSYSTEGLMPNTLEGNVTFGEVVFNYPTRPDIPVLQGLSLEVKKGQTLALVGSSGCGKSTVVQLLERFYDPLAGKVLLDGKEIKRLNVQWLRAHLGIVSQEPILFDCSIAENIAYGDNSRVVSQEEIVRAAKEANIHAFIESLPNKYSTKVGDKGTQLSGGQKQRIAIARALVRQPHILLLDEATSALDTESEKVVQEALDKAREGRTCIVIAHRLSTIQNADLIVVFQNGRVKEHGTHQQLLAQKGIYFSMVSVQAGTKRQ

- IC50 [1]: 0.0028 µM
- IC50 [5]: > 50 µM
- Activity [6]: inactive
- clearance [7]: 14 mL/min/kg
- IC50 [8]: > 50 µM
- Tmax [9]: 24 min
- Stability [10]: Unstable
- inhibition (INH) [11]: Not Active
- Stability [14]: Unstable
- logD [15]: 2.3
- Activity [16]: inactive
- Stability [17]: Unstable
- CLH [18]: < 2 µL/min/mg
- IC50 [19]: 0.0044 µM
- Activity [20]: Not Active
- half-life [22]: 330 min
- Tmax [23]: 30 min
- Cmax [24]: 173 ng/mL
- clearance [25]: 5.3 mL/min/kg
- fraction unbound at 20 ug/ml [26]: 0.12
- Stability [27]: Unstable
- Stability [28]: Unstable
- pKa [29]: 2.2
- Activity [30]: inactive
- clearance [31]: 5 mL/min/kg
- Kdiss [32]: 0.03 s⁻¹
- bioavailability [33]: 80%
SMILES: Cc1ncn(CC(=O)N2CCN(c3sc(C(F)(F)F)nc3-c3cnc(C(F)(F)F)nc3)C[C@H]2CCO)n1
- Activity [2]: 70%
- Activity [3]: Dose-Dependent Effect
- IC50 [4]: 26 µM
- IC20 [12]: 3 µg/mL (≈ 5.45 µM)
- IC50 [13]: 15.4 µM
- Activity [21]: inactive
